# Results: paper PMC6366416, “Synthesis and in vitro anticancer activity of certain novel 1-(2-methyl-6-arylpyridin-3-yl)-3-phenylureas as apoptosis-inducing agents” (Journal of Enzyme Inhibition and Medicinal Chemistry, 2019)
# Legend:
# Test in all cases: NCI one-dose SRB growth inhibition
# Assay type in all cases: cell-based
# [1] = system: NCI/ADR-RES; details: Homo sapiens, Ovarian Cancer, 48 h, read-out: GI% NCI/ADR-RES
# Description: (§1) The antitumor assay was performed according to the protocol of the Drug Evaluation Branch, NCI, Bethesda[24–26]. A 48 h drug exposure protocol was adopted, and sulforhodamine B (SRB) assay[27] was utilized to assess the cell growth and viability, as reported earlier[17]^,[28].
# (§2) The structures of all the newly synthesized pyridines 5a–l were submitted to the National Cancer Institute (NCI) Developmental Therapeutic Program (www.dtp.nci.nih.gov). […] Nine different types of cancer were tested in this assay: colon, ovarian, prostate, leukemia, melanoma, CNS, renal, breast and lung cancers. A 48 h drug exposure protocol was adopted, and sulforhodamine B (SRB) assay[27] was utilized to assess the cell growth and viability.
# [2] = system: RXF 393; details: Homo sapiens, Renal Cancer, 48 h, read-out: GI% RXF 393
# Description: as §1, §2
# [3] = system: NCI-H226; details: Homo sapiens, Non-Small Cell Lung Cancer, 48 h, read-out: GI% NCI-H226
# Description: as §1, §2
# [4] = system: UACC-257; details: Homo sapiens, UACC-257, read-out: GI% UACC-257, Melanoma, 48 h
# Description: as §1, §2
# [5] = system: SNB-19; details: Homo sapiens, CNS Cancer, 48 h, read-out: GI% SNB-19
# Description: as §1, §2
# [6] = system: 786-0; details: Homo sapiens, Renal Cancer, 48 h, read-out: GI% 786-0
# Description: as §1, §2
# [7] = system: COLO 205; details: Homo sapiens, Colon Cancer, 48 h, read-out: GI% COLO 205
# Description: as §1, §2
# [8] = system: DU-145; details: Homo sapiens, Prostate, 48 h, read-out: GI% DU-145
# Description: as §1, §2
# [9] = system: TK-10; details: Homo sapiens, Renal Cancer, 48 h, read-out: GI% TK-10
# Description: as §1, §2
# [10] = system: NCI-H322M; details: Homo sapiens, Non-Small Cell Lung Cancer, 48 h, read-out: GI% NCI-H322M
# Description: as §1, §2
# [11] = system: CCRF-CEM; details: Homo sapiens, Leukemia, 48 h, read-out: GI% CCRF-CEM
# Description: as §1, §2
# [12] = system: NCI-H522; details: Homo sapiens, NCI-H522, 48 h, Non-Small Cell Lung Cancer, read-out: GI% NCI-H522
# Description: as §1, §2
# [13] = system: NCI-H23; details: Homo sapiens, Non-Small Cell Lung Cancer, 48 h, read-out: GI% NCI-H23
# Description: as §1, §2
# [14] = system: SW-620; details: Homo sapiens, Colon Cancer, 48 h, read-out: GI% SW-620
# Description: as §1, §2
# [15] = system: NCI-H460; details: Homo sapiens, Non-Small Cell Lung Cancer, 48 h, read-out: GI% NCI-H460
# Description: as §1, §2
# [16] = system: SK-MEL-2; details: Homo sapiens, Melanoma, 48 h, read-out: GI% SK-MEL-2
# Description: as §1, §2
# [17] = system: HS 578T; details: Homo sapiens, Breast Cancer, 48 h, read-out: GI% HS 578T
# Description: as §1, §2
# [18] = system: OVCAR-8; details: Homo sapiens, Ovarian Cancer, 48 h, read-out: GI% OVCAR-8
# Description: as §1, §2
# [19] = system: SK-MEL-28; details: Homo sapiens, Melanoma, 48 h, read-out: GI% SK-MEL-28
# Description: as §1, §2
# [20] = system: HOP-92; details: Homo sapiens, Non-Small Cell Lung Cancer, 48 h, read-out: GI% HOP-92
# Description: as §1, §2
# [21] = system: MALME-3M; details: Homo sapiens, Melanoma, 48 h, read-out: GI% MALME-3M
# Description: as §1, §2
# [22] = system: HT29; details: Homo sapiens, HT-29, 48 h, Colon Cancer, read-out: GI% HT29
# Description: as §1, §2
# [23] = system: SF-539; details: Homo sapiens, CNS Cancer, 48 h, read-out: GI% SF-539
# Description: as §1, §2
# [24] = system: MDA-MB-435; details: Homo sapiens, Melanoma, 48 h, read-out: GI% MDA-MB-435
# Description: as §1, §2
# [25] = system: MOLT-4; details: Homo sapiens, Leukemia, 48 h, read-out: GI% MOLT-4
# Description: as §1, §2
# [26] = system: OVCAR-4; details: Homo sapiens, Ovarian Cancer, 48 h, read-out: GI% OVCAR-4
# Description: as §1, §2
# [27] = system: SNB-75; details: Homo sapiens, CNS Cancer, 48 h, read-out: GI% SNB-75
# Description: as §1, §2
# [28] = system: HCT-15; details: Homo sapiens, HCT-15, 48 h, Colon Cancer, read-out: GI% HCT-15
# Description: as §1, §2
# [29] = system: SF-295; details: Homo sapiens, CNS Cancer, 48 h, read-out: GI% SF-295
# Description: as §1, §2
# [30] = system: HL-60(TB); details: Homo sapiens, Leukemia, 48 h, read-out: GI% HL-60(TB)
# Description: as §1, §2
# [31] = system: KM12; details: Homo sapiens, Colon Cancer, 48 h, read-out: GI% KM12
# Description: as §1, §2
# [32] = system: A498; details: Homo sapiens, Renal Cancer, 48 h, read-out: GI% A498
# Description: as §1, §2
# [33] = system: SF-268; details: Homo sapiens, CNS Cancer, 48 h, read-out: GI% SF-268
# Description: as §1, §2
SMILES,inhibition at 10 µM [1] [%],inhibition at 10 µM [2] [%],inhibition at 10 µM [3] [%],inhibition at 10 µM [4] [%],inhibition at 10 µM [5] [%],inhibition at 10 µM [6] [%],inhibition at 10 µM [7] [%],inhibition at 10 µM [8] [%],inhibition at 10 µM [9] [%],inhibition at 10 µM [10] [%],inhibition at 10 µM [11] [%],inhibition at 10 µM [12] [%],inhibition at 10 µM [13] [%],inhibition at 10 µM [14] [%],inhibition at 10 µM [15] [%],inhibition at 10 µM [16] [%],inhibition at 10 µM [17] [%],inhibition at 10 µM [18] [%],inhibition at 10 µM [19] [%],inhibition at 10 µM [20] [%],other results
"Cc1nc(-c2ccc(F)cc2)ccc1NC(=O)Nc1cccc(C(F)(F)F)c1 [Compound 5a, 1-(6-(4-Fluorophenyl)-2-methylpyridin-3-yl)-3-(3-(trifluoromethyl)phenyl)urea]",20,< 10,18,38,15,< 10,< 10,11,< 10,15,25,> 40,24,< 10,34,< 10,< 10,29,20,< 10,inhibition at 10 µM [21]: < 10%; inhibition at 10 µM [22]: > 40%; inhibition at 10 µM [23]: < 10%; inhibition at 10 µM [24]: 19%; inhibition at 10 µM [25]: 33%; inhibition at 10 µM [26]: 30%; inhibition at 10 µM [27]: < 10%; inhibition at 10 µM [28]: > 40%; inhibition at 10 µM [29]: 17%; inhibition at 10 µM [30]: 11%; inhibition at 10 µM [31]: 37%; inhibition at 10 µM [32]: < 10%; inhibition at 10 µM [33]: < 10%
"CCOC(=O)c1ccc(NC(=O)Nc2ccc(-c3ccc(F)cc3)nc2C)cc1 [Compound 5c, Ethyl 4-(3-(6-(4-fluorophenyl)-2-methylpyridin-3-yl)ureido)benzoate]",< 10,< 10,12,29,< 10,< 10,< 10,< 10,< 10,< 10,< 10,24,< 10,< 10,< 10,< 10,< 10,< 10,< 10,< 10,inhibition at 10 µM [21]: < 10%; inhibition at 10 µM [22]: 18%; inhibition at 10 µM [23]: < 10%; inhibition at 10 µM [24]: < 10%; inhibition at 10 µM [25]: < 10%; inhibition at 10 µM [26]: < 10%; inhibition at 10 µM [27]: < 10%; inhibition at 10 µM [28]: < 10%; inhibition at 10 µM [29]: < 10%; inhibition at 10 µM [30]: 13%; inhibition at 10 µM [31]: < 10%; inhibition at 10 µM [32]: < 10%; inhibition at 10 µM [33]: < 10%
"Cc1nc(-c2ccc(F)cc2)ccc1NC(=O)Nc1ccc2c(c1)OCO2 [Compound 5d, 1-(Benzo[d][1, 3]dioxol-5-yl)-3-(6-(4-fluorophenyl)-2-methylpyridin-3-yl)urea]",< 10,< 10,< 10,15,< 10,< 10,< 10,< 10,< 10,< 10,< 10,45,< 10,< 10,< 10,< 10,< 10,< 10,< 10,< 10,inhibition at 10 µM [21]: < 10%; inhibition at 10 µM [22]: 14%; inhibition at 10 µM [23]: < 10%; inhibition at 10 µM [24]: < 10%; inhibition at 10 µM [25]: < 10%; inhibition at 10 µM [26]: < 10%; inhibition at 10 µM [27]: < 10%; inhibition at 10 µM [28]: < 10%; inhibition at 10 µM [29]: < 10%; inhibition at 10 µM [30]: < 10%; inhibition at 10 µM [31]: 11%; inhibition at 10 µM [32]: < 10%; inhibition at 10 µM [33]: < 10%
